# From patent US7691563B2, “Method for alleviating pain using sphingosine-1-phosphate and related compounds, and assays for identifying such compounds” (Sanofi-Aventis Pharma GmbH, priority 2003, dated 2010)
# “And” between values parts separate entries of the source, which are not always exact repeats. Equal entries are not always repeated.
# Assays:
# [1] = tested on: PAM; test: PAM translocation to the plasma membrane in HeLa cells (immunofluorescence); format: cell-based, human; conditions: HeLa cells, 0.5 μM S1P; PTX 1 μg/μl 24 hours; GF109203X 1 μM, others 10 μM, 20 minutes
# Procedure: Panel B: HeLa cells were treated with 10% fetal bovine serum for different times and stained with anti-PAM antibodies to monitor the subcellular localization.
# Panel B: HeLa cells were treated with 0.5 μM S1P for 30 minutes and stained with anti-PAM antibodies to monitor the subcellular localization.
# Panel C: Time dependence of PAM translocation in HeLa cells. Serum-starved HeLa cells were treated with 0.5 μM S1P for different times and stained with anti-PAM antibodies to monitor the subcellular localization.
# Panel D: HeLa cells were treated with 0.5 μM S1P for 20 minutes and stained with anti-PAM antibodies to monitor the subcellular localization. Prior S1P-treatment were the cells incubated for 24 hours with […] pertussis toxin (PTX), for 20 minutes with, 1 μM GF109203X, 10 μM U0126, BAPTA-AM, U73122 or Ro31-223.
# To monitor distribution of PAM in HeLa cells, cells were grown on glass coverslips in DMEM with 10% FBS and 1% penicillin/streptoMycin (Gibco, Karlsruhe, Germany). To visualize translocation of PAM HeLa, cells were serum starved overnight and subsequently treated with 10% serum for 2 hours. Wherever indicated, cells were preincubated for 30 minutes in the presence of different concentrations of inhibitors. The cells were fixed in 4% paraformaldehyde (Sigma, Taufkirchen, Germany) in PBS for 10 minutes and then permeablized in 0.1% Triton X-100 for another 5 minutes. The coverslips were blocked for 1 hour in 3% BSA in PBS and then incubated for 1 hour with anti-PAM antibody (1:50 dilution). This was followed by incubation with FITC-labeled goat anti-rabbit antibody in PBS containing 3% BSA. The cells were then washed with PBS and mounted. For the analysis confocal (BioRad, Hercules, Calif.) and regular flourescence microscopes (Nikon, Duesseldorf, Germany) were used.
# [2] = tested on: adenylyl cyclase (AC); test: AC activity of HeLa cell lysates after treatment of cells; format: cell-based, human; conditions: for effect of pre-treatment on S1P inhibition of Gαs-stimulated AC activity: HeLa cells, 0.5 μM S1P, PTX 1 μg/μl 24 hours, inhibitors 10 μM 20 minutes, ODN 3 μM, 60 minutes S1P; for effect on serum-induced inhibition of Gαs- and forskolin-stimulated AC activity: HeLa cells transfected with ODN (3 μM), 30 minutes 10% FBS
# Procedure: Panel B: Adenylyl cyclase activity of HeLa cell lysates was measured in the absence and presence of serum as described in Materials and Methods section. The Gsα* (80 nM; grey bars)- and forskolin (100 μM; black bars)-stimulated specific activities of ACV were 124±10 pmol/mg/min and 464±89 pmol/min/mg, respectively. The basal activity was 11.75±2 pmol/mg/min. The mean ±SE of at least 2 experiments each done in triplicates is shown. Student T test: *p<0.001.
# Panel E: Serum-starved HeLa cells were treated with sense, antisense, and 3M-as ODNs as described above. After 24 hours the cells were incubated for 30 minutes with 10% FBS. Cells were harvested and AC activity in presence of Gαs* (80 nM; grey bars) and forskolin (100 μM; black bars) was determined as described above. Data from at least 3 experiments measured in triplicates are presented as the mean±SEM. Student T test: *p<0.01, **p<0.05.
# Panel B: Serum-starved HeLa cells were treated for varying times with 0.5 μM S1P. Cells were harvested and AC activity in presence of 80 nM Gαs* was determined as described in Material and Methods. Data from at least 4 experiments measured in triplicates are presented as the mean ±SE.
# Panel C: Serum-starved HeLa cells were treated with sense, antisense, and 3M-as ODNs as described in the Materials and Methods section. After 24 hours the cells were incubated for the indicated times with 0.5 μM S1P. Cells were harvested and AC activity in presence of Gαs* (80 nM) was determined as described above. Data are presented as the mean ±SEM of three determinations.
# Panel A: Serum-starved HeLa cells were treated with 0.5 μM S1P for 3 (grey bars) or 60 (black bars) minutes. Prior incubation with S1P the cells were incubated for 24 hours with […] pertussis toxin (PTX). AC activity in was determined presence of 80 nM Gαs*. Data from at least 2 experiments measured in triplicates are presented as the mean ±SE.
# Panel B: Serum-starved HeLa cells were treated with 0.5 μM S1P. Prior incubation with S1P the cells were incubated for 20 minutes with 10 μM U73122, R031-8220, BAPTA-AM or U0126. AC activity in was determined presence of 80 nM Gαs*. Data from at least 2 experiments measured in triplicates are presented as the mean ±SE.
# Spinal cords were lysed in 25 mM Hepes, pH 7.4, 1 mM EGTA and cell membranes were prepared as described by Kassis and Fishman. Aliquots were stored at −80° C. until use. AC activity assays were performed in a volume of 100 μl for 15 min at room temperature in the presence of 100 μM MgCl2 as previously described (Patel et al., 2002). Gsα* (80 nM) or forskolin (100 μM) were used to stimulate AC enzyme activity in membranes (10 μg protein).
# The sequences of the oligodeoxynucleotides (ODNs) were chosen as published previously (Scholich et al., 2001). Sense: 5′-CTGTTCATGCCGGTT-3′, antisense: 5′-AACCGGCATGAACAG-3′, and antisense ODN harboring three mutations (3M-as; mutations are underlined): 5′-AATCCGTATGAACAC-3′. HeLa-cells were plated on 35 mm dishes (300,000 cells) and grown in DMEM medium (Gibco, Karlsruhe, Germany) containing 10% FBS and 1% penicillin/streptoMycin for 24 hours. The ODNs (3 μM each) were introduced into the cells by transfections using Tfx20 (Promega, Madison, Wis.) in 1 ml serum-free medium according to the instructions of the manufacturer. Two hours later, 1 ml DMEM (Gibco, Karlsruhe, Germany) containing 10% FBS was added. The cells were then incubated for 6 hours. Then the medium was exchanged against serum-free DMEM (Gibco, Karlsruhe, Germany), followed by an incubation for 16 hours in serum-free DMEM (Gibco, Karlsruhe, Germany) before being treated with 10% serum or […] S1P. The cells were then used for Western blots by adding boiling 1× Laemmli buffer or they were havested for AC activity assays as described above.
# [3] = tested on: adenylyl cyclase (AC); test: AC activity assay, purified PAM added to spinal cord or DRG lysates; format: biochemical, rat; conditions: 30 nM PAM
# Procedure: Panel B: Lysates of spinal cords or DRG (10 μg) were assayed for AC activity in the presence of 80 nM Gαs as described in Material and Methods. The mean ±SEM of at least 3 determinations done in triplicates is shown.
# PAM purification was performed with some modifications as published previously (Scholich et al. 2001). Shortly, HeLa cells were grown in DMEM medium with 10% fetal bovine serum and 1% penicillin/streptoMycin. Confluent cells of forty 150 mm dishes were harvested with 1×PBS, 1 mM EDTA and pelleted for 5 minutes at 400×g. The cells were resuspended in TED buffer (50 mM Tris-HCl, pH 8.0, 1 mM EDTA, 1 mM DTT) containing 125 mM NaCl, 20 μg/ml of aprotinin, 20 μg/ml leupeptin, 1 mM benzamidine, 5 μg/ml soybean trypsin inhibitor and lysed by 2×5 seconds of sonication. The homogenate was centrifuged at 27000×g for 30 min at 4° C., and the supernatant was loaded on a Q-Sepharose XK16 column (Amersham, Pharmacia, Piscataway, N.J.) and eluted with a gradient of 150-350 mM NaCl in TED according to instructions of the manufacturer. The fractions were analyzed by Western blotting according to standard procedures; positive fractions were pooled and the NaCl concentration adjusted to 1 M. The protein was then loaded on a Phenyl-Sepharose XK16 column (Amersham, Pharmacia, Piscataway, N.J.) and washed with 300 mM NaCl in TED according to instructions of the manufacturer. The flow through and wash fractions contained PAM. They were pooled and the buffer exchanged for the aforementioned TED buffer containing 100 mM NaCl using Centricon 50 (Amicon, Beverly, Mass.) according to the manufacturer's instructions. The protein was then loaded on a MonoS 5/5 FPLC column (Amersham, Pharmacia, Piscataway, N.J.) and washed with the loading buffer (100 mM NaCl in TED) according to instructions of the manufacturer. The flow through was collected and applied to a Mono Q 5/5 FPLC column (Amersham, Pharmacia, Piscataway, N.J.). The protein was eluted with a gradient from 150-400 mM NaCl in TED. […]
Compound,effect of pre-treatment on S1P-induced PAM translocation [1],effect of pre-treatment on S1P inhibition of Gαs-stimulated AC activity [2],also measured
Pertussis toxin [reference compound],eliminated,eliminated,
Cn1cc(C2=C(c3cn(CCCSC(=N)N)c4ccccc34)C(=O)NC2=O)c2ccccc21 [RO 31-8220],,eliminated,
"sense ODN: sense ODN used in HeLa cells, 5′-CTGTTCATGCCGGTT-3′ (DNA, backbone and methylation of C not given here)",,,effect on serum-induced inhibition of Gαs- and forskolin-stimulated AC activity [2]: no influence
"3M-as: antisense ODN harboring three mutations, HeLa cells, 5′-AATCCGTATGAACAC-3′ (DNA, backbone and methylation of C not given here)",,,effect on serum-induced inhibition of Gαs- and forskolin-stimulated AC activity [2]: no influence
"CN(C)CCCn1cc(C2=C(c3c[nH]c4ccccc34)C(=O)NC2=O)c2ccccc21 [GF109203X, reference compound]",eliminated,,
"PAM: Protein Associated with Myc, giant protein of 510 kDa, full length purified from HeLa cells",,,decrease of Gαs-stimulated AC activity ([3]; DRG lysates): 32%; inhibition of Gαs-stimulated AC activity ([3]; spinal cord lysates of animals treated for 1 hour with formalin): 25%; decrease of Gαs-stimulated AC activity ([3]; spinal cord lysates of control animals): 50% and 49%
C=C[C@@]1(C)CC(=O)[C@]2(O)[C@@]3(C)[C@@H](O)CCC(C)(C)[C@@H]3[C@H](O)[C@H](OC(C)=O)[C@@]2(C)O1 [forskolin],,,"forskolin-stimulated specific activity of AC ([2]; HeLa cell lysates, 100 μM forskolin): 464 ± 89 pmol/min/mg"
"CC(=O)OCOC(=O)CN(CC(=O)OCOC(C)=O)c1ccccc1OCCOc1ccccc1N(CC(=O)OCOC(C)=O)CC(=O)OCOC(C)=O [BAPTA-AM, reference compound]",did not interfere,,
"COc1ccc2c(c1)CC[C@@H]1[C@@H]2CC[C@]2(C)[C@@H](NCCCCCCN3C(=O)C=CC3=O)CC[C@@H]12 [U73122, reference compound]",abolished,abolished,
